Reference: PubChem BioAssay AID1259332 (Broad Institute, 2017)
Calls of active or inactive are those of the source. The rule behind the calls is not given here.

System: B cell line, CD40 signaling inhibition reporter
Test: CD40 pathway inhibition in B cells – B cell lineage, dose response (AID 1259332);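 note: cells stimulated with CD40 ligand tCD40L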

Row | Compound | AC50
1 | Cn1cnc(S(=O)(=O)N2C[C@@H]3N[C@H](C2)C3c2ccc(-c3ccccc3F)cc2)c1 (stereo partly specified) | 11 µM
2 | CCS(=O)(=O)N1[C@H](CO)[C@@H](c2ccc(C#Cc3ccccc3F)cc2)[C@@H]1C#N | 4.12 µM
3 | O=C(Cc1ccccc1)N1CC[C@@H]2[C@H]1c1cc(C#Cc3cccc(F)c3)ccc1N[C@@H]2CO | 5.19 µM
4 | Cc1ccsc1C(=O)OCC(=O)c1cc(C)n(CC2CCCO2)c1C (stereo unspecified) | 0.124 µM
5 | C[C@H]1O[C@@H](O[C@H]2[C@@H](O)C[C@H](O[C@H]3[C@@H](O)C[C@H](O[C@H]4CC[C@]5(C)C6C[C@@H](O)[C@]7(C)[C@@H](C8=CC(=O)OC8)CC[C@]7(O)C6CC[C@@H]5C4)O[C@@H]3C)O[C@@H]2C)C[C@H](O)[C@@H]1O (stereo partly specified) | 2.59 µM
6 | COc1cc2cc(C(=O)N3CC(COS(C)(=O)=O)c4ccc(O)cc43)[nH]c2c(OC)c1OC (stereo unspecified) | 0.00741 µM
7 | N#C[C@H]1[C@H](c2ccc(C#Cc3ccc(F)cc3)cc2)[C@@H](CO)N1C(=O)C1CCC1 | 7.7 µM
8 | CC12CCC3C(CCC4(O)CC(O)CCC34C=O)C1(O)CCC2C1=CC(=O)OC1 (stereo unspecified) | 3.86 µM
9 | O=C1NC2c3c(I)sc(I)c3C(=O)C2O1 (stereo unspecified) | 3.2 µM
10 | CC(=O)NCCCC(=O)NC(CCC(=O)OCc1ccccc1)C(=O)OCc1ccccc1 (stereo unspecified) | > 20 µM (inactive)
11 | COc1ccc(CC2C(=O)NC(C)C(=O)N(C)C3C(=O)N(C)C(Cc4ccc(O)c(c4)Oc4ccc(cc4)C3O)C(=O)NC(C)C(=O)NC(C)C(=O)N2C)cc1 (stereo unspecified) | 0.00902 µM
12 | C[C@@H]1CN([C@@H](C)CO)C(=O)c2c(c3ccccc3n2C)-c2ccccc2CO[C@@H]1CN(C)C(=O)c1cc(Cl)cc(Cl)c1 | > 20 µM (inactive)
13 | C[C@@H]1CN([C@H](C)CO)C(=O)c2cc(NC(=O)Nc3cccc4ccccc34)ccc2O[C@@H](C)CCCCO[C@H]1CN(C)Cc1ccc(C(F)(F)F)cc1 | 1.91 µM
14 | c1ccc(-c2nnc(-c3ccccn3)nn2)nc1 | 10.5 µM
15 | CC1=CC2OC3CC4OC(=O)C=CC=CC(C(C)O)OCC(O)C5(C)OC5C(=O)OCC2(CC1O)C4(C)C31CO1 (stereo unspecified) | 0.0375 µM
16 | COc1ccc(-c2ccc([C@H]3[C@@H](C#N)N(C(=O)c4cccc(F)c4)[C@H]3CO)cc2)cc1 | > 22 µM (inactive)
17 | C[C@@H]1CN([C@@H](C)CO)C(=O)c2c(c3ccccc3n2C)-c2ccccc2CO[C@@H]1CN(C)C(=O)Nc1ccccc1C(F)(F)F | 9.94 µM
18 | CC(C)[C@H](CO)Nc1nc(Nc2cccc(Cl)c2)c2ncn(C(C)C)c2n1 | 4.67 µM
19 | CC(=NNC(=S)N1CC2CCC(CC2)C1)c1nccs1 | > 7 µM (inactive)
20 | C[C@@H]1CCCCO[C@@H](CN(C)Cc2ccc(Cl)c(Cl)c2)[C@H](C)CN([C@H](C)CO)C(=O)c2cc(NS(=O)(=O)c3cccs3)ccc2O1 | 7.26 µM
21 | CC(C)c1c(O)ccc2c1CCC1C(C)(C)CCC[C@]21C (stereo partly specified) | 5.44 µM
22 | CC(=O)O[C@@H]1C[C@@]2(C)[C@H](c3ccoc3)C[C@H]3O[C@]32[C@]2(C)C(=O)C(=O)C3C(C)(C)C(=O)C=C[C@]3(C)C12 (stereo partly specified) | 1.22 µM

Row | Compound | AC50
23 | CCCCCN1C=CC(=C2C(=O)c3ccccc3C2=O)C=C1 | 0.127 µM
24 | COc1ccc(/C=N/Nc2ncccc2[N+](=O)[O-])c(OC)c1 | 4.23 µM
25 | COc1ccc(S(=O)(=O)Nc2ccc3c(c2)C(=O)N([C@@H](C)CO)C[C@@H](C)[C@@H](CN(C)Cc2ccc(C(F)(F)F)cc2)OCCCC[C@H](C)O3)cc1 | > 7 µM (inactive)
26 | COc1ccc(C#Cc2ccc([C@H]3[C@H]4CN(C(=O)c5ccncc5)CCCCN4[C@H]3CO)cc2)cc1 | 11.2 µM
27 | C[C@@H]1CN([C@@H](C)CO)C(=O)Cc2cc(NS(=O)(=O)c3ccc(F)cc3)ccc2O[C@H]1CN(C)Cc1ccc(C(F)(F)F)cc1 | 3.75 µM
28 | Cn1cnc([N+](=O)[O-])c1S(=O)(=O)Oc1cccc2ccccc12 | 0.368 µM
29 | COc1ccc2c3c(n(C)c2c1)[C@H](CO)N(C(=O)Nc1ccc(F)cc1)CC31CCN(C(=O)Nc2ccc(F)cc2F)CC1 | > 7 µM (inactive)
30 | CC1OC(OC2C(O)CC(OC3C(O)CC(OC4CCC5(C)C(CCC6C5CCC5(C)C(C7=CC(=O)OC7)C(O)CC65O)C4)OC3C)OC2C)CC(O)C1O (stereo unspecified) | 0.943 µM
31 | Clc1ccc(CSC(Cn2ccnc2)c2ccc(Cl)cc2Cl)cc1 (stereo unspecified) | > 20 µM (inactive)
32 | CCCNC(=O)N1[C@@H](C#N)[C@H](c2ccc(-c3cccc(OC)c3)cc2)[C@@H]1CO | 11 µM
33 | CN(C)c1ccc(NC(=O)c2cnsn2)cc1 | 6.15 µM
34 | O=C(Cc1ccccc1)N1CC[C@@H]2[C@H]1c1cc(-c3cccc(F)c3)ccc1N[C@@H]2CO | 1.89 µM
35 | COc1ccc(/C=C\c2nc(=O)c3ccccc3o2)cc1 | 7.67 µM
36 | O=C(C1CC1)N1C[C@@H]2N[C@H](C1)C2c1ccc(-c2cccc(F)c2)cc1 (stereo partly specified) | 6.91 µM
37 | O=C(C1CC1)N1C[C@@H]2N[C@H](C1)[C@@H]2c1ccc(-c2ccncc2)cc1 | 5.72 µM
38 | COc1ccc(S(=O)(=O)Nc2ccc3c(c2)C(=O)N([C@H](C)CO)C[C@@H](C)[C@@H](CN(C)Cc2ccc(C(F)(F)F)cc2)OCCCC[C@H](C)O3)cc1 | 6.77 µM
39 | CC[C@@]1(O)C(=O)OCc2c1cc1n(c2=O)Cc2cc3cc(O)ccc3nc2-1 | 1.33 µM
40 | N#C[C@@H]1[C@H](c2ccc(C#CC3CCCC3)cc2)[C@H](CO)N1C(=O)Cc1ccccn1 | 9.08 µM
41 | CCCn1c(NC(=O)c2cccc(S(=O)(=O)N3CCCC3)c2)nc2ccccc21 | 2.02 µM
42 | COc1ccc2c3c([nH]c2c1)[C@H](CO)N(C(=O)Nc1ccc(F)cc1)CC31CCN(C(=O)c2ccccc2F)CC1 | 6.92 µM
43 | C[C@@H]1CN([C@@H](C)CO)C(=O)c2c(c3ccccc3n2C)-c2ccccc2CO[C@H]1CN(C)Cc1ccccc1 | 8.22 µM
44 | CC1CC(C)C(=O)C(C(O)CC2CC(=O)NC(=O)C2)C1 (stereo unspecified) | 0.196 µM

Row | Compound | AC50
45 | C[C@@H]1O[C@@H](O[C@H]2C[C@@H](O)[C@]3(CO)[C@H]4[C@H](O)C[C@]5(C)[C@@H](C6COC(=O)C6)CC[C@]5(O)[C@@H]4CC[C@]3(O)C2)[C@H](O)[C@H](O)[C@H]1O (stereo partly specified) | 2.55 µM
46 | C[C@@H]1O[C@@H](O[C@H]2C[C@@H](O)[C@]3(CO)C4C(CC[C@]3(O)C2)[C@@]2(O)CC[C@H](C3=CC(=O)OC3)[C@@]2(C)C[C@H]4O)[C@H](O)[C@H](O)[C@H]1O (stereo partly specified) | 0.294 µM
47 | N#CC(C#N)=NNc1ccc(OC(F)(F)F)cc1 | 3.97 µM
48 | N#Cc1c(Br)n(C2OC(CO)C(O)C2O)c2ncnc(N)c12 (stereo unspecified) | 1.74 µM
49 | N#Cc1cccc(-c2ccc(C3[C@@H]4CN(C(=O)Nc5ccc(C(F)(F)F)cc5)C[C@H]3N4)cc2)c1 (stereo partly specified) | 8.9 µM
50 | CC[C@H]1CN2CCc3cc(OC)c(OC)cc3C2C[C@@H]1CC1NCCc2cc(OC)c(OC)cc21 (stereo partly specified) | 0.0205 µM
51 | O=C(Nc1cccc(N2C(=O)C=CC2=O)c1)c1cccs1 | 1.68 µM
52 | Cc1ccccc1NC(=O)c1nc(S(C)(=O)=O)ncc1Cl | 1.68 µM
53 | O=C(Nc1ccc(C(F)(F)F)cc1)N1C[C@@H]2N[C@H](C1)C2c1ccc(-c2ccccc2)cc1 (stereo partly specified) | 7.26 µM
54 | O=C(Nc1ccc2c(c1)OCCO2)C1CCCC1 | 5.46 µM
55 | Oc1c(Cl)cc(Cl)cc1Sc1cc(Cl)cc(Cl)c1O | 7.67 µM
56 | Cc1ccc(CN2CC(C(=O)Nc3ncc(C)s3)CC2=O)cc1 (stereo unspecified) | 4.99 µM
57 | COc1ccc(-c2cc(-c3ccccc3)c(C#N)c(S(C)=O)n2)cc1 (stereo unspecified) | 2.55 µM
58 | CC1=C(SCCO)C(=O)c2ccccc2C1=O | 2.6 µM
59 | Cc1nc(C)c(C(=O)Nc2ncc([N+](=O)[O-])s2)o1 | 9.08 µM
60 | C[C@H]1CN([C@@H](C)CO)C(=O)c2cccc(NC(=O)Nc3ccc(F)cc3)c2O[C@H]1CN(C)S(=O)(=O)c1ccc(Cl)cc1 | 4.87 µM
61 | COC(=O)c1ccc2nc(NC(=O)C(C)(C)C)sc2c1 | 1.9 µM
62 | C[C@@H]1CN([C@@H](C)CO)C(=O)c2c(c3ccccc3n2C)-c2ccccc2CO[C@H]1CN(C)Cc1cccc(C(=O)Nc2ccccc2N)c1 | > 20 µM (inactive)
63 | O=C1CC(=O)OC(c2ccc([N+](=O)[O-])cc2)O1 | 0.629 µM
64 | C[C@H]1CN([C@@H](C)CO)C(=O)c2ccccc2-c2ccccc2CO[C@@H]1CN(C)Cc1ccccc1C(F)(F)F | 7.28 µM
65 | CC[C@@]1(O)C(=O)OCc2c1cc1n(c2=O)Cc2cc3c(CN(C)C)c(O)ccc3nc2-1 | 0.9 µM
66 | C[C@H]1O[C@@H](O[C@H]2[C@@H](O)C[C@H](O[C@H]3[C@@H](O)C[C@H](O[C@H]4CC[C@]5(C)C6CC[C@]7(C)[C@@H](C8=CC(=O)OC8)CC[C@]7(O)C6CC[C@@H]5C4)O[C@@H]3C)O[C@@H]2C)C[C@H](O)[C@@H]1O (stereo partly specified) | 0.929 µM

Row | Compound | AC50
67 | O=C1C=CC(=O)c2c(O)c(N3CCN(CCOCCO)CC3)c(Br)c(O)c21 | 1.91 µM
68 | N#C[C@@H]1[C@H](c2ccc(C#Cc3ccccc3F)cc2)[C@@H](CO)N1C(=O)c1cccnc1 | 4.37 µM
69 | O=C(Cn1ncc(Cl)c(Cl)c1=O)NC1CCCCC1 | 4.96 µM
70 | [O-]C(=C(C(=S)Nc1cccc2ccccc12)[n+]1ccccc1)c1ccc2c(c1)OCCO2 | > 20 µM (inactive)
71 | CC(C)[C@H](N)C(=O)N[C@H]1CCC2C3CC=C4C[C@@H](O)CC[C@]4(C)C3CC[C@@]21C (stereo partly specified) | 2.97 µM
72 | Cn1cnc(CCNC(=O)C[C@@H]2CC[C@@H]3[C@H](COC[C@@H](O)CN3C(=O)Nc3ccc(C(F)(F)F)cc3)O2)c1 | 8.76 µM
73 | Cc1ccccc1C(=O)N1CCC(C(=O)Nc2nc3ccc(F)cc3s2)CC1 | 8.19 µM
74 | Cc1cc(C)cc(N2C(=O)CC(Sc3nnnn3-c3ccccc3)C2=O)c1 (stereo unspecified) | 0.675 µM
75 | N#Cc1cccc(-c2ccc([C@@H]3[C@@H]4CN(S(=O)(=O)c5ccc(-c6ccccc6)cc5)C[C@H]3N4)cc2)c1 | > 20 µM (inactive)
76 | COc1cc(/C=N/n2cnnc2)ccc1OC(=O)c1ccncc1 | 3.6 µM
77 | CC(C)Cc1ccc(C(C)CC2=CCC(CN(C)C)C2=O)cc1 (stereo unspecified) | 3.99 µM
78 | N#Cc1cccc(-c2ccc(C3[C@H]4CNC[C@@H]3N4Cc3ccc4c(c3)OCO4)cc2)c1 (stereo partly specified) | > 20 µM (inactive)
79 | c1ccc(OCCSc2nnc3sc4ccccc4n23)cc1 | 4.7 µM
80 | COc1ccc(/C=C/C(=O)Nc2ccccc2C(=O)O)cc1OC | 6.12 µM
81 | CC(C)OC(=O)c1cn(Cc2c(F)cccc2F)c2sc(-c3ccc(NC(=O)C(C)C)cc3)c(CN(C)Cc3ccccc3)c2c1=O | > 20 µM (inactive)
82 | Cc1ccc(S(=O)(=O)N2CCCC2CNC(=O)c2ccc3c(c2)OCO3)cc1 (stereo unspecified) | 3.91 µM
83 | COc1c(O)cc2oc3cc(O)c(CC=C(C)C)c(O)c3c(=O)c2c1CC=C(C)C | 3.6 µM
84 | CC(C)c1ccc(NC(=O)Nc2nc(C(N)COCc3ccccc3)cs2)cc1 (stereo unspecified) | 2.62 µM
85 | c1ccc(-c2nc(-c3ccccn3)no2)cc1 | 3.98 µM
86 | COCC(=O)N1[C@H](C#N)[C@H](c2ccc(C#Cc3ccccc3F)cc2)[C@H]1CO | 0.856 µM
